Columns and labels:
[1] = molecular target: T1, recombinant human O-GlcNAc transferase (OGT) (Homo sapiens, UniProt O15294); assay: phosphatase coupled universal glycosyltransferase assay, OGT; assay type: biochemical; conditions: 0.4 mM nucleotide sugar donor, 0.2 mM acceptor OGT substrate, 2.5 μg OGT, 37° C., 20 minutes (FIG. 8)
T1 construct: purchased R&D Systems and/or Bio-Techne
T1 sequence (O15294 1-1046): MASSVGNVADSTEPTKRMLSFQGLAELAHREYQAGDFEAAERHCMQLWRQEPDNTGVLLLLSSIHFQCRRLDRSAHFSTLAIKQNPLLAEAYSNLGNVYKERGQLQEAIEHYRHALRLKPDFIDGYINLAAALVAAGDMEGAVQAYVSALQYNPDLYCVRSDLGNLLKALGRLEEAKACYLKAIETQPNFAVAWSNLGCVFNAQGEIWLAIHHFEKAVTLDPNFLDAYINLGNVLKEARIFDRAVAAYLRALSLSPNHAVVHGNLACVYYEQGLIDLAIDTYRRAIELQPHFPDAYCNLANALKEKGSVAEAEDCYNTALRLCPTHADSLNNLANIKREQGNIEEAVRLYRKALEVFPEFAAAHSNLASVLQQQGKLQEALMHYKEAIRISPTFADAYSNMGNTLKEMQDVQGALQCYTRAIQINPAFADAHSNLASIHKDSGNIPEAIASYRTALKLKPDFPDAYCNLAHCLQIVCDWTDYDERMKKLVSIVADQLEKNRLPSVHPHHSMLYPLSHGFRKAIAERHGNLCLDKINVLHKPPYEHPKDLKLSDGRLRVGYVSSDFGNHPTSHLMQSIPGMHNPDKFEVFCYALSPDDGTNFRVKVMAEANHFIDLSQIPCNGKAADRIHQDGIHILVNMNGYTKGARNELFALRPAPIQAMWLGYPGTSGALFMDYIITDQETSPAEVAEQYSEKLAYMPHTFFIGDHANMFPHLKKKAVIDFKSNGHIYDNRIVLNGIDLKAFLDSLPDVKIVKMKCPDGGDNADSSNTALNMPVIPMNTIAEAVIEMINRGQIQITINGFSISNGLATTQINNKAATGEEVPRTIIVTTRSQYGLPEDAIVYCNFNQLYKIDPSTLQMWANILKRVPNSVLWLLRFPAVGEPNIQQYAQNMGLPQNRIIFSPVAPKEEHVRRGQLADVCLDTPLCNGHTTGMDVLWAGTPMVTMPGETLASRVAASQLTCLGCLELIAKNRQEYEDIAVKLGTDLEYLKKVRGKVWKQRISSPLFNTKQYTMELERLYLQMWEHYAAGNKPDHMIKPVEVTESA
Procedure: (§1) Using a phosphatase coupled universal glycosyltransferase assay, an analysis of the activity of B3GALNT2 and OGT on regular nucleotide sugar as compared to azido nucleotide sugar was performed. For the B3GALNT2 assay, 0.4 mM nucleotide sugar donor (UDP-GalNAc or UDP-GalNAz), 2 mM of acceptor substrate benzyl-β-GlcNAc, and 0.1 μg of coupling phosphatase 1 were combined with 1 μg of B3GALNT2 in 50 μL of assay buffer of 25 mM Tris at pH 7.5, 10 mM MnCl2 and 10 mM CaCl2 at 37° C. for 20 minutes. For the OGT assay, 0.4 mM nucleotide sugar donor (UDP-GlcNAc or UDP-GlcNAz), 0.2 mM of acceptor OGT substrate, and 0.1 μg of coupling phosphatase 1 were combined with 2.5 μg of OGT in 50 μL of assay buffer of 25 mM Tris at pH 7.5, 10 mM MnCl2 and 10 mM CaCl2 at 37° C. for 20 minutes. Both assays were performed according to the Universal Glycosyltransferase Assay Kit from R&D Systems®. FIG. 8 is a bar graph of the activity of B3GALNT2 and OGT on regular nucleotide sugars compared to azido nucleotide sugars.

[2] = molecular target: T2, recombinant human B3GALNT2 (Homo sapiens, UniProt Q8NCR0); assay: phosphatase coupled universal glycosyltransferase assay, B3GALNT2; assay type: biochemical; conditions: 0.4 mM nucleotide sugar donor, 2 mM acceptor benzyl-β-GlcNAc, 1 μg B3GALNT2, 37° C., 20 minutes; compared with UDP-GalNAc (FIG. 8)
T2 construct: purchased R&D Systems and/or Bio-Techne
T2 sequence (Q8NCR0 1-500): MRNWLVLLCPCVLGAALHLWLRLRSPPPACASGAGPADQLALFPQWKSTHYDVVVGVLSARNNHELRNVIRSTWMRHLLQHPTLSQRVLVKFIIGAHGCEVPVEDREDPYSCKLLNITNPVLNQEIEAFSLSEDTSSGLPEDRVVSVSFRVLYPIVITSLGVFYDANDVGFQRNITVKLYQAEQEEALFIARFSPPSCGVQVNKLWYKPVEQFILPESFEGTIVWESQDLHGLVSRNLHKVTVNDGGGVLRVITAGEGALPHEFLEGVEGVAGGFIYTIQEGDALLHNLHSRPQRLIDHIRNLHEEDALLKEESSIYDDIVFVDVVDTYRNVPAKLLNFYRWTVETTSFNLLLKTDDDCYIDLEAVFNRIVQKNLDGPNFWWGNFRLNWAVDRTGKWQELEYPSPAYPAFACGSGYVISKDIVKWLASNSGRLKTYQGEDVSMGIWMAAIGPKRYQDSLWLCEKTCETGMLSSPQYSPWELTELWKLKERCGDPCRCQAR
Procedure: as §1

activity of OGT on azido nucleotide sugar compared to regular nucleotide sugar [1]	SMILES	activity of B3GALNT2 on azido nucleotide sugar compared to regular nucleotide sugar [2]
equally active	[N-]=[N+]=NCC(=O)N[C@H]1[C@@H](OP(=O)(O)OP(=O)(O)OC[C@H]2O[C@@H](n3ccc(=O)[nH]c3=O)[C@H](O)[C@@H]2O)O[C@H](CO)[C@@H](O)[C@@H]1O [UDP-GlcNAz]	–
equally active	CC(=O)N[C@H]1[C@@H](OP(=O)(O)OP(=O)(O)OC[C@H]2O[C@@H](n3ccc(=O)[nH]c3=O)[C@H](O)[C@@H]2O)O[C@H](CO)[C@@H](O)[C@@H]1O [UDP-GlcNAc]	–
–	[N-]=[N+]=NCC(=O)N[C@H]1[C@@H](OP(=O)(O)OP(=O)(O)OC[C@H]2O[C@@H](n3ccc(=O)[nH]c3=O)[C@H](O)[C@@H]2O)O[C@H](CO)[C@H](O)[C@@H]1O [UDP-GalNAz]	more active on UDP-GalNAz than on UDP-GalNAc
